Reference: PubChem BioAssay (NCI)
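96-well plates; 48 h exposure; 5 concentrations. Endpoints by linear interpolation between flanking doses. Not reached: highest tested concentration assigned. TGI marks complete inhibition of growth.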

Key:
Assay in all cases: inhibition of tumour cell growth, NCI panel, 48 h
MOLT-4 leukemia = system: MOLT-4 leukemia
EKVX NSCLC = system: EKVX NSCLC
U251 CNS = system: U251 CNS
HL-60(TB) leukemia = system: HL-60(TB) leukemia
CAKI-1 renal = system: CAKI-1 renal
BT-549 breast = system: BT-549 breast
786-0 renal = system: 786-0 renal
SK-MEL-28 melanoma = system: SK-MEL-28 melanoma
MDA-N = system: MDA-N
PC-3 prostate = system: PC-3 prostate
MDA-MB-435 = system: MDA-MB-435
SF-539 CNS = system: SF-539 CNS
OVCAR-5 ovarian = system: OVCAR-5 ovarian
UACC-257 melanoma = system: UACC-257 melanoma
T-47D breast = system: T-47D breast
K-562 leukemia = system: K-562 leukemia
LOX IMVI melanoma = system: LOX IMVI melanoma
IGROV1 ovarian = system: IGROV1 ovarian
UACC-62 melanoma = system: UACC-62 melanoma
A498 renal = system: A498 renal
OVCAR-8 ovarian = system: OVCAR-8 ovarian
HOP-62 NSCLC = system: HOP-62 NSCLC
HCT-116 colon = system: HCT-116 colon
MALME-3M melanoma = system: MALME-3M melanoma
SF-268 CNS = system: SF-268 CNS
CCRF-CEM leukemia = system: CCRF-CEM leukemia
SK-MEL-5 melanoma = system: SK-MEL-5 melanoma
SF-295 CNS = system: SF-295 CNS
NCI-H460 lung = system: NCI-H460 lung
ACHN renal = system: ACHN renal
DU-145 prostate = system: DU-145 prostate
HT29 colon = system: HT29 colon
M14 melanoma = system: M14 melanoma
NCI/ADR-RES ovarian = system: NCI/ADR-RES ovarian
NCI-H23 lung = system: NCI-H23 lung
NCI-H522 lung = system: NCI-H522 lung
SR leukemia = system: SR leukemia
MCF7 breast = system: MCF7 breast
RXF 393 renal = system: RXF 393 renal
SK-OV-3 ovarian = system: SK-OV-3 ovarian
TK-10 renal = system: TK-10 renal
UO-31 renal = system: UO-31 renal
SN12C renal = system: SN12C renal
OVCAR-3 ovarian = system: OVCAR-3 ovarian
SNB-19 CNS = system: SNB-19 CNS
SW-620 colon = system: SW-620 colon
COLO 205 colon = system: COLO 205 colon
HCT-15 colon = system: HCT-15 colon
MDA-MB-231 breast = system: MDA-MB-231 breast
NCI-H226 lung = system: NCI-H226 lung
HOP-92 NSCLC = system: HOP-92 NSCLC
OVCAR-4 ovarian = system: OVCAR-4 ovarian
KM12 colon = system: KM12 colon
SNB-75 CNS = system: SNB-75 CNS
HS 578T breast = system: HS 578T breast
A549 NSCLC = system: A549 NSCLC
RPMI-8226 leukemia = system: RPMI-8226 leukemia
SK-MEL-2 melanoma = system: SK-MEL-2 melanoma
HCC-2998 colon = system: HCC-2998 colon

With O=S1(=O)C(c2ccccc2)C(N2CCCCC2)C1C1CC2c3ccccc3C1c1ccccc12 (centres undefined) the TGI (MOLT-4 leukemia) was greater than 100 µM, the TGI (EKVX NSCLC) was greater than 100 µM and the TGI (U251 CNS) was greater than 100 µM. For the same molecule, the TGI (HL-60(TB) leukemia) was greater than 100 µM, the TGI (CAKI-1 renal) was greater than 100 µM and the TGI (BT-549 breast) was greater than 100 µM. It also gave a TGI (786-0 renal) greater than 100 µM, a TGI (SK-MEL-28 melanoma) greater than 100 µM and a TGI (MDA-N) greater than 100 µM. The TGI (PC-3 prostate) was greater than 100 µM, the TGI (MDA-MB-435) was greater than 100 µM and the TGI (SF-539 CNS) was greater than 100 µM. For the same molecule, the TGI (OVCAR-5 ovarian) was greater than 100 µM, the TGI (UACC-257 melanoma) was greater than 100 µM and the TGI (T-47D breast) was greater than 100 µM. It also gave a TGI (K-562 leukemia) greater than 100 µM, a TGI (LOX IMVI melanoma) greater than 100 µM and a TGI (IGROV1 ovarian) greater than 100 µM. For the same molecule, the TGI (UACC-62 melanoma) was greater than 100 µM, the TGI (A498 renal) was greater than 100 µM and the TGI (OVCAR-8 ovarian) was greater than 100 µM. For the same molecule, the TGI (HOP-62 NSCLC) was greater than 100 µM, the TGI (HCT-116 colon) was greater than 100 µM and the TGI (MALME-3M melanoma) was greater than 100 µM. For the same molecule, the TGI (SF-268 CNS) was greater than 100 µM, the TGI (CCRF-CEM leukemia) was greater than 24.3 µM and the TGI (SK-MEL-5 melanoma) was greater than 100 µM. It also gave a TGI (SF-295 CNS) greater than 100 µM, a TGI (NCI-H460 lung) greater than 100 µM and a TGI (ACHN renal) greater than 100 µM. It also gave a TGI (DU-145 prostate) greater than 100 µM, a TGI (HT29 colon) greater than 100 µM and a TGI (M14 melanoma) greater than 100 µM. It also gave a TGI (NCI/ADR-RES ovarian) greater than 100 µM, a TGI (NCI-H23 lung) greater than 100 µM and a TGI (NCI-H522 lung) greater than 100 µM. The TGI (SR leukemia) was greater than 100 µM, the TGI (MCF7 breast) was greater than 100 µM and the TGI (RXF 393 renal) was greater than 100 µM. For the same molecule, the TGI (SK-OV-3 ovarian) was greater than 100 µM, the TGI (TK-10 renal) was greater than 100 µM and the TGI (UO-31 renal) was greater than 100 µM. The TGI (SN12C renal) was greater than 100 µM, the TGI (OVCAR-3 ovarian) was greater than 100 µM and the TGI (SNB-19 CNS) was greater than 100 µM. It also gave a TGI (SW-620 colon) greater than 100 µM, a TGI (COLO 205 colon) greater than 100 µM and a TGI (HCT-15 colon) greater than 100 µM. For the same molecule, the TGI (MDA-MB-231 breast) was greater than 100 µM, the TGI (NCI-H226 lung) was greater than 100 µM and the TGI (HOP-92 NSCLC) was greater than 100 µM. For the same molecule, the TGI (OVCAR-4 ovarian) was greater than 100 µM, the TGI (KM12 colon) was greater than 100 µM and the TGI (SNB-75 CNS) was greater than 100 µM. It also gave a TGI (HS 578T breast) greater than 100 µM, a TGI (A549 NSCLC) greater than 100 µM and a TGI (RPMI-8226 leukemia) greater than 100 µM. The TGI (SK-MEL-2 melanoma) was greater than 100 µM.
Molecule CS(=O)(=O)OC1CN2CCC1CC2 (centres undefined) has a TGI (MOLT-4 leukemia) greater than 100 µM, a TGI (EKVX NSCLC) greater than 100 µM and a TGI (U251 CNS) greater than 100 µM. The TGI (HL-60(TB) leukemia) was greater than 100 µM, the TGI (CAKI-1 renal) was greater than 100 µM and the TGI (BT-549 breast) was greater than 100 µM. For the same molecule, the TGI (786-0 renal) was greater than 100 µM, the TGI (SK-MEL-28 melanoma) was greater than 100 µM and the TGI (MDA-N) was greater than 100 µM. It also gave a TGI (PC-3 prostate) greater than 100 µM, a TGI (MDA-MB-435) greater than 100 µM and a TGI (OVCAR-5 ovarian) greater than 100 µM. The TGI (UACC-257 melanoma) was greater than 100 µM, the TGI (T-47D breast) was greater than 100 µM and the TGI (K-562 leukemia) was greater than 100 µM. It also gave a TGI (LOX IMVI melanoma) greater than 100 µM, a TGI (IGROV1 ovarian) greater than 100 µM and a TGI (UACC-62 melanoma) greater than 100 µM. For the same molecule, the TGI (A498 renal) was greater than 100 µM, the TGI (OVCAR-8 ovarian) was greater than 100 µM and the TGI (HOP-62 NSCLC) was greater than 100 µM. It also gave a TGI (HCT-116 colon) greater than 100 µM, a TGI (MALME-3M melanoma) greater than 100 µM and a TGI (SF-268 CNS) greater than 100 µM. It also gave a TGI (CCRF-CEM leukemia) greater than 100 µM, a TGI (SK-MEL-5 melanoma) greater than 100 µM and a TGI (SF-295 CNS) greater than 100 µM. It also gave a TGI (NCI-H460 lung) greater than 100 µM, a TGI (ACHN renal) greater than 100 µM and a TGI (DU-145 prostate) greater than 100 µM. It also gave a TGI (HT29 colon) greater than 100 µM, a TGI (M14 melanoma) greater than 100 µM and a TGI (NCI/ADR-RES ovarian) greater than 100 µM. It also gave a TGI (NCI-H23 lung) greater than 100 µM, a TGI (NCI-H522 lung) greater than 100 µM and a TGI (SR leukemia) greater than 100 µM. For the same molecule, the TGI (MCF7 breast) was greater than 100 µM, the TGI (RXF 393 renal) was greater than 100 µM and the TGI (SK-OV-3 ovarian) was greater than 100 µM. For the same molecule, the TGI (TK-10 renal) was greater than 100 µM, the TGI (UO-31 renal) was greater than 100 µM and the TGI (SN12C renal) was greater than 100 µM. For the same molecule, the TGI (OVCAR-3 ovarian) was greater than 100 µM, the TGI (SNB-19 CNS) was greater than 100 µM and the TGI (SW-620 colon) was greater than 100 µM. The TGI (COLO 205 colon) was greater than 100 µM, the TGI (HCT-15 colon) was greater than 100 µM and the TGI (MDA-MB-231 breast) was greater than 100 µM. The TGI (HOP-92 NSCLC) was greater than 100 µM, the TGI (OVCAR-4 ovarian) was greater than 100 µM and the TGI (KM12 colon) was greater than 100 µM. For the same molecule, the TGI (SNB-75 CNS) was greater than 100 µM, the TGI (HS 578T breast) was greater than 100 µM and the TGI (A549 NSCLC) was greater than 100 µM. For the same molecule, the TGI (RPMI-8226 leukemia) was greater than 100 µM and the TGI (SK-MEL-2 melanoma) was greater than 100 µM.
COc1cc(OC)cc(OCc2ccc3nc(-c4ccccc4)c(Cl)nc3c2)c1 showed a TGI (MOLT-4 leukemia) of 74.1 µM, a TGI (EKVX NSCLC) greater than 100 µM and a TGI (U251 CNS) of 59.9 µM. It also gave a TGI (HL-60(TB) leukemia) greater than 100 µM, a TGI (CAKI-1 renal) of 28.1 µM and a TGI (BT-549 breast) of 65.3 µM. The TGI (786-0 renal) was 28.3 µM, the TGI (HCC-2998 colon) was greater than 100 µM and the TGI (SK-MEL-28 melanoma) was greater than 100 µM. For the same molecule, the TGI (MDA-N) was greater than 100 µM, the TGI (PC-3 prostate) was greater than 100 µM and the TGI (MDA-MB-435) was greater than 100 µM. For the same molecule, the TGI (SF-539 CNS) was 49.9 µM, the TGI (OVCAR-5 ovarian) was greater than 100 µM and the TGI (UACC-257 melanoma) was greater than 100 µM. For the same molecule, the TGI (T-47D breast) was greater than 100 µM, the TGI (LOX IMVI melanoma) was greater than 100 µM and the TGI (IGROV1 ovarian) was 66.4 µM. For the same molecule, the TGI (UACC-62 melanoma) was greater than 100 µM, the TGI (A498 renal) was 76.8 µM and the TGI (OVCAR-8 ovarian) was 95.9 µM. For the same molecule, the TGI (HOP-62 NSCLC) was 33.8 µM, the TGI (HCT-116 colon) was greater than 100 µM and the TGI (MALME-3M melanoma) was 32.7 µM. It also gave a TGI (SF-268 CNS) greater than 100 µM, a TGI (CCRF-CEM leukemia) greater than 100 µM and a TGI (SK-MEL-5 melanoma) of 69.9 µM. It also gave a TGI (SF-295 CNS) of 67.8 µM, a TGI (NCI-H460 lung) greater than 100 µM and a TGI (ACHN renal) greater than 100 µM. The TGI (DU-145 prostate) was greater than 100 µM, the TGI (HT29 colon) was greater than 100 µM and the TGI (M14 melanoma) was greater than 100 µM. It also gave a TGI (NCI/ADR-RES ovarian) of 67.8 µM, a TGI (NCI-H23 lung) greater than 100 µM and a TGI (NCI-H522 lung) of 20.3 µM. The TGI (SR leukemia) was 48 µM, the TGI (MCF7 breast) was greater than 100 µM and the TGI (TK-10 renal) was 55.6 µM. The TGI (UO-31 renal) was greater than 100 µM, the TGI (SN12C renal) was greater than 100 µM and the TGI (OVCAR-3 ovarian) was greater than 100 µM. For the same molecule, the TGI (SNB-19 CNS) was 66.9 µM, the TGI (SW-620 colon) was greater than 100 µM and the TGI (COLO 205 colon) was 68.9 µM. The TGI (HCT-15 colon) was greater than 100 µM, the TGI (MDA-MB-231 breast) was 30.5 µM and the TGI (HOP-92 NSCLC) was 66.4 µM. The TGI (OVCAR-4 ovarian) was greater than 100 µM, the TGI (KM12 colon) was greater than 100 µM and the TGI (SNB-75 CNS) was 37.4 µM. The TGI (HS 578T breast) was greater than 100 µM, the TGI (A549 NSCLC) was greater than 100 µM and the TGI (RPMI-8226 leukemia) was greater than 100 µM. The TGI (SK-MEL-2 melanoma) was greater than 100 µM.
